Values joined by “and” are separate entries in the source; they are usually repeats but may differ in a detail not shown here. Identical values can stand only once. Counter-ions that a name gives are not always drawn.
How the values were obtained:
Human recombinant MMP1 = biological target: T1, Human recombinant MMP1 (Homo sapiens, UniProt P03956); test: MMP1 (Collagenase-1) inhibition, 14C collagen release; format: biochemical; details: 35° C., 5 hours; read-out: MMP-1 inhibitory activity, IC50
T1 sequence (P03956 100-469): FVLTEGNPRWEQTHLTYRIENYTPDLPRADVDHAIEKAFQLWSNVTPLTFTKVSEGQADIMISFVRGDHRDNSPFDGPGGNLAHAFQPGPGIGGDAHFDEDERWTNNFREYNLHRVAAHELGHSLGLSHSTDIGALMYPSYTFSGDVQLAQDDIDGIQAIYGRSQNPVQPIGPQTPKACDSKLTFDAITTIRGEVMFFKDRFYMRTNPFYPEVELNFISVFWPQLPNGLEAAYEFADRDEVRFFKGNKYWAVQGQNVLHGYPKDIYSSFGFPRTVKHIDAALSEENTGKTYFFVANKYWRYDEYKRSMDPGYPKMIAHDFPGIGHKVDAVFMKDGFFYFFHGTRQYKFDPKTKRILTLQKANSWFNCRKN

Human recombinant MMP14 = Human recombinant MMP14 (Homo sapiens, UniProt P50281); test: MMP14 (MTI-MMP) inhibition, 14C collagen release; format: biochemical; details: 35° C., 15 hours; read-out: MMP-14 inhibitory activity, IC50
Human recombinant MMP3 = Human recombinant MMP3 (Homo sapiens, UniProt P08254); test: MMP3 (Stromelysin 1) inhibition, 14C casein release; format: biochemical; details: 37° C., 16 hours; read-out: MMP-3 inhibitory activity, IC50
Sequence of Human recombinant MMP3 (P08254 100-477): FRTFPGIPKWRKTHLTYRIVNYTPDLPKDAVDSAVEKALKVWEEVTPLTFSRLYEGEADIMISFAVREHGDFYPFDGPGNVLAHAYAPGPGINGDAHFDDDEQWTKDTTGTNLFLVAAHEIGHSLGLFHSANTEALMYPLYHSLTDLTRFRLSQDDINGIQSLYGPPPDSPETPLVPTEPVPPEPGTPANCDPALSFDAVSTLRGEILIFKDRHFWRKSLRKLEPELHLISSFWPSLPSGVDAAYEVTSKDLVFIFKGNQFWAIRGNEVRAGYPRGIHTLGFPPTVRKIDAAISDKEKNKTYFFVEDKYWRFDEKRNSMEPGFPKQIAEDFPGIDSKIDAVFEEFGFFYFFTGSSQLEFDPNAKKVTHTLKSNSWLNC

MMP2 (Gelatinase A) = biological target: T2, MMP2 (Gelatinase A) (Homo sapiens, UniProt P08253); test: MMP2 (Gelatinase A) inhibition, 14C gelatin release; format: biochemical; details: 37° C., 16 hours; read-out: MMP-2 inhibitory activity, IC50
T2 sequence (P08253 110-660): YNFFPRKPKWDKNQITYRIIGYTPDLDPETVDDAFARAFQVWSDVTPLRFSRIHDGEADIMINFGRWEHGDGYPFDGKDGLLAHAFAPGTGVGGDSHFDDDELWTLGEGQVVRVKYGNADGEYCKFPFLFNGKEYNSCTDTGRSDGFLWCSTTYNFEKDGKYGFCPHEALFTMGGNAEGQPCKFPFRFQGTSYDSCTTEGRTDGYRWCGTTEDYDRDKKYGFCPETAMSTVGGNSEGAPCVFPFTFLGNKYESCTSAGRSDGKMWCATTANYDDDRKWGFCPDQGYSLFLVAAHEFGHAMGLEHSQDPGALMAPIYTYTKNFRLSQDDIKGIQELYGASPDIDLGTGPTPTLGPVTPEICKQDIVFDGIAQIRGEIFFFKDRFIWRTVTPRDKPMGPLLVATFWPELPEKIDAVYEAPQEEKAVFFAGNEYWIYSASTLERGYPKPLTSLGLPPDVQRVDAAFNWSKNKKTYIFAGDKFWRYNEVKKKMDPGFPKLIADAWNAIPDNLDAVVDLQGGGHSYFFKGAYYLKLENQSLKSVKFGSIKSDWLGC

Human recombinant MMP9 = Human recombinant MMP9 (Homo sapiens, UniProt P14780); test: MMP9 (Gelatinase B) inhibition, 14C gelatin release; format: biochemical; details: 37° C., 16 hours; read-out: MMP-9 inhibitory activity, IC50
Sequence of Human recombinant MMP9 (P14780 94-707): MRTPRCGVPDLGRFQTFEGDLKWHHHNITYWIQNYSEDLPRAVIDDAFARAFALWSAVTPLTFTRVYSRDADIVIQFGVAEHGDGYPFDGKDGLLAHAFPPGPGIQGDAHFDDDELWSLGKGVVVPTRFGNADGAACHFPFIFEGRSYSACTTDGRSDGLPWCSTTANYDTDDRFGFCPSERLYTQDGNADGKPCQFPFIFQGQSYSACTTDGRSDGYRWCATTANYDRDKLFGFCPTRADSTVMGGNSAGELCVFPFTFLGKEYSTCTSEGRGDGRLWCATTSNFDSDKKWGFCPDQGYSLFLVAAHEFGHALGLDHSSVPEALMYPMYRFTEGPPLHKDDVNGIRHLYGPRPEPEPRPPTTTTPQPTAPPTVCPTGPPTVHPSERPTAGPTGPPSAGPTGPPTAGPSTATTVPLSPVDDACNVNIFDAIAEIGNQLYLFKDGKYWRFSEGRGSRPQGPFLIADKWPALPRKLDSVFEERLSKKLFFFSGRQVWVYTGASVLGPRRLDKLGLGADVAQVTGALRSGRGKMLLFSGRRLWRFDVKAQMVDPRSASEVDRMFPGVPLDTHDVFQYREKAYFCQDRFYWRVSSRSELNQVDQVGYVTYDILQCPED

[1] = system: RPMI-8226 human myeloma cancer cells; test: Membrane Invasion Culture System (MICS) chemo-invasion assay; format: cell-based; details: 24 hours, + = increased invasiveness
From the text: (§1) Another objective was to analyze the effects of specific, tetracycline derived compounds on the in-vitro chemo-invasive potential of: • C8161 human melanoma cells • MDA-MB-231 human breast cancer cells • PC3 human prostate cancer cells • RPM18226 human myeloma cancer cells • Ark human myeloma cancer cells • Arp-1 human myeloma cancer cells
(§2) The Membrane Invasion Culture System (MICS) in vitro chemo-invasion assay was chosen to measure changes in the invasive potential of specific human cancer cells in response to tetracycline derived compounds. Stock solutions of each compound were hydrated in water containing 2% DMSO and pH 10.0. Upon solubilization, HCl was added to the solution to establish a pH of 7.5–8.0. This solution was then wrapped in foil and kept at 4° C. during the 24 hours of assay. Fresh compound was prepared for each assay. The in vitro chemoinvasion analyses for tumor cell invasiveness are performed using the Membrane Invasion Culture System (MICS) as previously described.
(§3) The MICS system is a thermally treated plastic manifold system consisting of two matched sets of plates containing fourteen wells, 13 mm in diameter. Interposed between these plates was a polycarbonate filter containing 10 μm pores and coated with a defined matrix composed of human laminin/collagen IV/gelatin that formed a 35 μm thick barrier between the top and bottom sections of the wells in MICS. Prior to placing this barrier in place, the lower wells were filled with serum-free RPMI culture medium made 50% in conditioned medium obtained from 2-day-old cultures of human fibroblasts which had been cleared of cells and cellular debris by either centrifugation, or filtering through a 0.45 μm sterile filter. The barrier was then placed on the lower wells and fresh serum-free medium added to the upper wells after assembly of the system. Fifty thousand tumor cells were then added to the wells either in the presence of the compound, or the DMSO vehicle (the controls). Of the 12 assay wells on each manifold, 3 randomized wells acted as controls, 3 wells received 1 μg/ml of compound, 3 received 10 μg/ml and 3 received 25 μg/ml. After 24 hours, cells and media were removed from the lower wells and replaced by phosphate buffered saline plus 2 mM EDTA. This solution was used to remove all cells from the lower well, and this wash was added to the recovered cells plus medium from the same well. These samples were then collected onto a polylysine containing polycarbonate membrane containing 3 μm pores using a Dot-Blot manifold system. These collection filters were then fixed in methanol, and stained using Wright's stain (Leukostat staining kit) in situ. The filters were then mounted on microscope slides with microscope immersion oil (which reduced the light refraction from the pores) and 5 microscopic fields were counted to calculate the number of cells which invaded through the membrane over the 24 hour period. These numbers were then statistically analyzed as discussed below.

[2] = system: PC-3 ML human prostate cancer cells; test: as above; format: cell-based; details: 24 hours, + = increased invasiveness
From the text: as §1, §2, §3

[3] = system: C8161 human melanoma cells; test: as above; format: cell-based; details: 24 hours, + = increased invasiveness
From the text: as §1, §2, §3

[4] = system: MDA-MB-231 human breast cancer cells; test: as above; format: cell-based; details: 24 hours, + = increased invasiveness
From the text: as §1, §2, §3

| SMILES | IC50 (Human recombinant MMP1) | IC50 (Human recombinant MMP14) | IC50 (Human recombinant MMP3) | IC50 (MMP2 (Gelatinase A)) | IC50 (Human recombinant MMP9) | percent inhibition, C8161 (Melanoma) ([3]; 1 ug/mL) | percent inhibition, C8161 (Melanoma) ([3]; 10 ug/mL) | percent inhibition, C8161 (Melanoma) ([3]; 25 ug/mL) | percent inhibition, MDA-MB-231 (Breast) ([4]; 1 ug/mL) | percent inhibition, MDA-MB-231 (Breast) ([4]; 10 ug/mL) | percent inhibition, MDA-MB-231 (Breast) ([4]; 25 ug/mL) | further results |
| --- | --- | --- | --- | --- | --- | --- | --- | --- | --- | --- | --- | --- |
| CC1c2c(N(CCC(C)(C)C)CCC(C)(C)C)ccc(O)c2C(=O)C2=C(O)C3(O)C(=O)C(C(N)=O)=C(O)C(N(C)C)C3C(O)C21 (stereo not shown) [Compound 19, 7-Di-(3,3-dimethylbutyl)amino-6-deoxy-5-hydroxytetracycline H2SO4] | 270 µM | 90 µM | 394 µM | 925 µM | 98 µM |  |  |  |  |  |  |  |
| CN(C)C1C(O)=C(C(N)=O)C(=O)C2(O)C(O)=C3C(=O)c4c(O)ccc(Cl)c4C(C)(O)C3CC12 (stereo not drawn) [Compound 52, 4-Epi-7-Chlorotetracycline hydrochloride] |  |  |  |  |  | 5% | 15% | 30% | 5% | 12% | 52^B percent | percent inhibition, RPMI-8226 (Multiple Myeloma) ([1]; 10 ug/mL, hydrochloride): 26^B percent and 33^B percent; percent inhibition, RPMI-8226 (Multiple Myeloma) ([1]; 25 ug/mL, hydrochloride): 68^B percent and 46^B percent; percent inhibition, PC-3 ML (Prostrate) ([2]; 1 ug/mL, hydrochloride): 52^B percent and 31^B percent; percent inhibition, PC-3 ML (Prostrate) ([2]; 10 ug/mL, hydrochloride): 68^B percent and 48^B percent; percent inhibition, PC-3 ML (Prostrate) ([2]; 25 ug/mL, hydrochloride): 70^B percent and 63^B percent |
| CC1c2ccc(-c3ccc(F)cc3)c(O)c2C(=O)C2=C(O)C3(O)C(=O)C(C(N)=O)=C(O)C(N(C)C)C3C(O)C21 (stereo not shown) [Compound 51, 9-(4-fluorophenyl)-6-deoxy-5-hydroxytetracycline] |  |  |  |  |  | +9% | +31^B percent | +122^B percent | +15^B percent | +18% | 25^B percent | percent inhibition, RPMI-8226 (Multiple Myeloma) ([1]; 1 ug/mL): 14%; percent inhibition, RPMI-8226 (Multiple Myeloma) ([1]; 10 ug/mL): +26^B percent; percent inhibition, RPMI-8226 (Multiple Myeloma) ([1]; 25 ug/mL): +2%; percent inhibition, PC-3 ML (Prostrate) ([2]; 1 ug/mL): +4%; percent inhibition, PC-3 ML (Prostrate) ([2]; 10 ug/mL): +13%; percent inhibition, PC-3 ML (Prostrate) ([2]; 25 ug/mL): 4% |
| CC1c2c(N=[N+]=[N-])cc(C(C)(C)C)c(O)c2C(=O)C2=C(O)C3(O)C(=O)C(C(N)=O)=C(O)C(N(C)C)C3C(O)C21 (stereo not shown) [Compound 45, 7-Azido-9-tertbutyl-6-deoxy-5-hydroxytetracycline H2SO4] | 384 µM |  | 194 µM | 2450 µM | 6630 µM |  |  |  |  |  |  |  |
| CN(C)[C@@H]1C(=O)C(C(N)=O)=C(O)[C@@]2(O)C(=O)C3=C(O)c4c(O)cccc4C[C@H]3C[C@@H]12.Cl [Compound 53, 6-Demethyl-6-deoxytetracycline HCl] |  |  |  |  |  | +40^B percent | +158^B percent | 83^B percent | 9% | 49^B percent | 83^B percent | percent inhibition, RPMI-8226 (Multiple Myeloma) ([1]; 1 ug/mL): +95^B percent; percent inhibition, RPMI-8226 (Multiple Myeloma) ([1]; 10 ug/mL): 18%; percent inhibition, RPMI-8226 (Multiple Myeloma) ([1]; 25 ug/mL): 84^B percent; percent inhibition, PC-3 ML (Prostrate) ([2]; 1 ug/mL): 29^B percent; percent inhibition, PC-3 ML (Prostrate) ([2]; 10 ug/mL): 21%; percent inhibition, PC-3 ML (Prostrate) ([2]; 25 ug/mL): 45^B percent |

More lines, main results first:

| IC50 (Human recombinant MMP1) | IC50 (Human recombinant MMP14) | IC50 (Human recombinant MMP3) | IC50 (MMP2 (Gelatinase A)) | IC50 (Human recombinant MMP9) | SMILES | percent inhibition, C8161 (Melanoma) ([3]; 1 ug/mL) | percent inhibition, C8161 (Melanoma) ([3]; 10 ug/mL) | percent inhibition, C8161 (Melanoma) ([3]; 25 ug/mL) | percent inhibition, MDA-MB-231 (Breast) ([4]; 1 ug/mL) | percent inhibition, MDA-MB-231 (Breast) ([4]; 10 ug/mL) | percent inhibition, MDA-MB-231 (Breast) ([4]; 25 ug/mL) | further results |
| --- | --- | --- | --- | --- | --- | --- | --- | --- | --- | --- | --- | --- |
| 279 µM | 386 µM | > 1000 µM |  |  | CC1c2c(N)cc([N+](=O)[O-])c(O)c2C(=O)C2=C(O)C3(O)C(=O)C(C(N)=O)=C(O)C(N(C)C)C3C(O)C21 (stereo not shown) [Compound 14, 7-Amino-6-deoxy-5-hydroxy-9-nitrotetracycline H2SO4] |  |  |  |  |  |  |  |
| 242 µM | 197 µM | 136 µM | 242 µM | 308 µM | CC1c2cccc(O)c2C(=O)C2=C(O)C3(O)C(=O)C(C(N)=O)=C(O)CC3C(O)C21 (stereo not shown) [Compound 34, 4-Dedimethylamino-6-deoxy-5-hydroxytetracycline] |  |  |  |  |  |  |  |
| 947 µM | 108 µM | 218 µM | 249 µM | 397 µM | CC1c2ccc([N+](=O)[O-])c(O)c2C(=O)C2=C(O)C3(O)C(=O)C(C(N)=O)=C(O)CC3C(O)C21 (stereo not shown) [Compound 35, 4-Dedimethylamino-6-deoxy-5-hydroxy-9-nitrotetracycline] |  |  |  |  |  |  |  |
| 560 µM | 29 µM | 91 µM | 362 µM |  | CC1c2c([N+](=O)[O-])cc(C(C)(C)C)c(O)c2C(=O)C2=C(O)C3(O)C(=O)C(C(N)=O)=C(O)CC3C(O)C21 (stereo not shown) [Compound 40, 7-Nitro-9-tertbutyl-4-dedimethylamino-6-deoxy-5-hydroxy-tetracycline H2SO4] | +1% | +5% | +4% | 9% | 15% | 20^B percent | percent inhibition, RPMI-8226 (Multiple Myeloma) ([1]; 1 ug/mL): 16%; percent inhibition, RPMI-8226 (Multiple Myeloma) ([1]; 10 ug/mL): 11%; percent inhibition, RPMI-8226 (Multiple Myeloma) ([1]; 25 ug/mL): 9%; percent inhibition, PC-3 ML (Prostrate) ([2]; 1 ug/mL): +1%; percent inhibition, PC-3 ML (Prostrate) ([2]; 10 ug/mL): +7%; percent inhibition, PC-3 ML (Prostrate) ([2]; 25 ug/mL): +4% |
| 600 µM |  | 174 µM | 2480 µM | 319 µM | CC1c2c([N+]#N)cc(C(C)(C)C)c(O)c2C(=O)C2=C(O)C3(O)C(=O)C(C(N)=O)=C(O)C(N(C)C)C3C(O)C21 (stereo not shown) [Compound 43, 9-tertbutyl-6-deoxy-5-hydroxytetracycline-7-diazonium H2SO4] |  |  |  |  |  |  |  |
|  | 428 µM | 1560 µM | 606 µM | 405 µM | CC(=O)Nc1cc(N=[N+]=[N-])c(O)c2c1C(C)C1C(=C(O)C3(O)C(=O)C(C(N)=O)=C(O)C(N(C)C)C3C1O)C2=O (stereo not shown) [Compound 42, 7-Acetylamino-9-azido-6-deoxy-5-hydroxy-tetracycline] |  |  |  |  |  |  |  |
| 1440 µM |  | 224 µM | 1470 µM | 591 µM | CC1c2c(N)cc(C(C)(C)C)c(O)c2C(=O)C2=C(O)C3(O)C(=O)C(C(N)=O)=C(O)C(N(C)C)C3C(O)C21 (stereo not shown) [Compound 44, 7-Amino-9-tertbutyl-6-deoxy-5-hydroxytetracycline H2SO4] |  |  |  |  |  |  |  |
